The test system of data set [1] is a total of 8 tumors. Briefly: OncoPanel assay conducted by Eurofins. Type of data set: cell-based. As to the method: The OncoPanel™ assay conducted by Eurofins confirmed the antitumor efficacy of LDD3959 in a total of 8 tumors at concentrations of 10 μM or lower.
The nature of data set [2]: Toxicity by 3-week DRF oral administration. Type of data set: in vivo, ICR mice. The following applies: once a day for 3 weeks, 500 to 2000 mg/kg. As to the method:
LDD3959 was administered once a day for 3 weeks at each concentration (in the range of 500 to 2000 mg/kg), adverse events during the course of administration were checked, and the subjects were sacrificed the next day after the end of administration to perform weight measurement, hematological analysis, and biochemical analysis for each organ. In addition, the same experiment was performed on five ICR female mice and five ICR male mice to identify gender-dependent differences.

Data set [3] concerns MDA-MB231 breast cancer cells. Briefly: Antitumor effects in in vivo breast cancerous tumors, MDA-MB231 xenograft. Set-up: species or system mice. As to the method:
To examine the antitumor effect of LDD3959, CanN.Cg-Foxn1nu/CrljOri mice were used as experimental animals. The mice were xenografted with MDA-MB231 breast cancer cells to induce tumors. The MDA-MB231 breast cancer cell-transplanted group was divided into two groups: an oral administration group and an intraperitoneal administration group. In this test, the oral administration was performed daily and the intraperitoneal administration was performed twice a week.

Data set [4] deals with ACHN cells. Nature of the data set: Expression of cell proliferation inhibition-related and angiogenesis inhibition-related proteins, western blot. In kind it is cell-based. The following applies: various concentrations, 48 hours. How it is done: LDD3959 treatment at various concentrations was performed on ACHN cells, using a serum-free culture medium, and a reaction was performed at 37° C. in the presence of 5% CO2 for 2 hours. The culture medium was replaced with a culture medium containing 10% FBS, and a reaction was performed for 48 hours. The culture medium was removed, and PBS washing was performed. With the use of a solution obtained by adding a protease inhibitor cocktail and a phosphatase inhibitor cocktail to RIPA buffer (25 mM Tris*HCl pH 7.6, 150 mM NaCl, 1% NP-40, 1% sodium deoxycholate, and 0.1% SDS) was used to prepare whole cell lysates.
The proteins were quantified by Bicinchoninic acid (BCA) protein assay. The proteins were resolved by SDS-PAGE and transcribed into a polyvinylidene difluoride (PVDF) membrane. The membrane was then blocked with 5% BSA for 1 hour at room temperature, allowed to react with a labeled antibody overnight at 4° C., washed in PBS-T for 30 minutes at room temperature, and allowed to react with a horseradish peroxidase (HRP)-bound secondary antibody for 2 hours at room temperature. Finally, the membrane was washed in PBS-T for […] at room temperature and developed with enhanced chemiluminescence.
In general terms: Immunoblotting shows a protein as a band on a membrane.

The subject of data set [5] is p53. Briefly: P53 rescue test using western blotting. In kind it is cell-based. To be noted: low to high concentration, cancer cell lines. How it is done: Whole cell lysates were prepared using a radioimmunoprecipitation assay (RIPA) buffer (150 mM sodium chloride, 1.0% (w/v) IGEPAL® CA-630 (NP-40), 0.5% (w/v) sodium deoxycholate, 0.1% (w/v) sodium dodecyl sulfate (SDS), a protease inhibitor cocktail, and 50 mM Tris-HCl (pH 8.0) containing a phosphatase inhibitor cocktail. Protein assays were performed through Bradford protein assay (Thermo Scientific, Waltham, MA, USA) to normalize protein expression. The proteins were resolved by SDS-PAGE and transferred to polyvinylidene difluoride (PVDF) membranes (Merck Millipore, Burlington, MA, USA). The membranes were blocked with 5% (w/v) BSA for 1 hour at room temperature and incubated overnight at 4° C. with labeled antibodies. Membranes were washed in TBS-T for 1 hour at room temperature and incubated together with a horseradish peroxidase (HRP)-bound secondary antibody for 1 hour at room temperature. Finally, the membranes were washed in TBS-T for 1 hour at room temperature and developed with enhanced chemiluminescence.

Data set [6] can be described thus: Toxicity by single oral administration. Type of data set: in vivo, ICR mice. To be noted: 500 to 2000 mg/kg. As to the method:
LDD3959 was orally administered once for each concentration in the range of 500 to 2000 mg/kg, and adverse events (body weight changes, feed intake changes, general appearance changes) were checked for 2 weeks. After 2 weeks of administration, the mice were sacrificed. Then, the mice underwent hematological examination and measurement of weight change of each organ thereof. In addition, the same experiment was performed on five ICR female mice and five ICR male mice to identify gender-dependent differences.

As for `O=C1C(Cl)=C(Cl)C(=O)c2[nH]c(-c3ccc(Br)c(F)c3)nc21` [LDD3959, 2-(4-bromo-3-fluorophenyl)-5,6-dichloro-1H-benzo[d]imidazole-4,7-dione], the “concentration with antitumor efficacy” value in data set [1] is ≤ 10 µM. In data set [2], the adverse events entry was “no specific adverse events occurred”; the “hematological and biochemical tests” value is “no probable adverse events”. The deaths entry in data set [2] (female and male ICR mice) is reported as “no deaths of the subjects occurred”. Further, in data set [3] (intraperitoneal administration twice a week), the antitumor effect entry is recorded as “concentration-dependent antitumor effects”. The antitumor effect result in data set [3] (oral administration daily) is given as “concentration-dependent antitumor effects”. Further, in data set [4], the Akt/mTOR signals entry is recorded as “inhibiting Akt/mTOR45 signals” and the NFκB complexes result is “inhibiting NFκB complexes”. Moreover, the “p53 rescue effect (Western blot band of p53)” value in data set [5] is reported as “dose-dependent p53 rescue effects”. Further, the deaths entry in data set [6] (2 weeks, female and male ICR mice) is on record as “no deaths of the subjects occurred”. Besides, in data set [6] (after 2 weeks), the “adverse responses in blood” value is listed as “no specific adverse responses occurred in blood”.

The record behind these values is patent US20240300902A1, “NOVEL TRANSGLUTAMINASE 2 INHIBITOR AND USE THEREOF” (MD BIOLAB CO., LTD., priority 2021, published 2024).
